pEC50: −log10 of the molar value.
Tests used:
[1] = In vitro radical scavenging action (DPPH method); conditions: 30 minutes at room temperature, maximum concentration 100 μmol/L
Description: Radical scavenging action was evaluated using the DPPH method in the compound of Comparative Example 1, which is a tetrahydroquinoxaline derivative, and in the tetrahydroquinoline derivative (I) or a pharmaceutically acceptable salt thereof. The DPPH method was performed using an antioxidant capacity measurement kit (Dojindo Laboratories).
A test compound was dissolved in DMSO, and the resulting solution was then mixed with an assay buffer and a DPPH solution, which are included in the kit, to a total volume of 200 μL to obtain a final concentration of 10% DMSO, and the reaction was allowed to proceed. Wells added with 100 μmol/L ferrostatin-1, a radical scavenger, were grouped as “control,” and wells added with not test compound were grouped as “background.” The test compound was serially diluted 3-fold starting from a maximum concentration of 100 μmol/L, and the diluted test compound (1.2, 3.7, 11.1, 33.3, or 100 μmol/L) was added and allowed to react at room temperature. Thirty minutes after the reaction, the absorbance at 517 nm was measured, and the average absorbance value was calculated (N=2). The radical scavenging action of the test compound (hereinafter referred to as radical scavenging rate, %) was calculated based on the equation 2 below. The EC50 value of the test compound was calculated from the radical scavenging rate. Radical scavenging rate (%)=[1−{(Average absorbance value at 517 nm measured when a test compound is added)−(Average absorbance value at 517 nm measured in the background)}/{(Average absorbance value at 517 nm measured in the control)−(Average absorbance value at 517 nm measured in the background)}]×100 Equation 2
A note “no detection of radical scavenging action (N.D.),” is given to compounds with a EC50 of >100 μmol/L.

[2] = test system: Human fibrosarcoma cells (HT-1080 cells); test: In vitro inhibitory action against ferroptosis (Erastin-induced cell death, Cell Counting Kit-8); format: cell-based; conditions: Erastin 3 μmol/L, 24 hours
Description: The inhibitory action against ferroptosis of the tetrahydroquinoline derivative (I) or a pharmaceutically acceptable salt thereof was evaluated with Human fibrosarcoma cells (HT-1080 cells), by using, as an index, the inhibitory action against the cell death induced by treatment with a ferroptosis inducer, Erastin.
HT-1080 cells (ATCC) were cultured in a mixture (hereinafter referred to as vehicle) composed of DMEM/F12 (Thermo Fisher Scientific, Inc.), a final concentration of 10% fetal bovine serum (Thermo Fisher Scientific, Inc.), and a final concentration of 1% penicillin-streptomycin solution (Nacalai Tesque, Inc.). Cells were seeded into 96-well plates (Corning Inc.) at 5×10^4 cells/well and cultured overnight.
A test compound was dissolved in DMSO, and the resulting solution was diluted in the vehicle to a final concentration of 1% DMSO and then used. […] Thirty minutes after the addition of the test compound, Erastin (Cayman Chemical Co.) diluted in the vehicle at a final concentration of 3 μmol/L was added to wells. The wells added with the test compound and Erastin were grouped as “test compound,” and the wells added with no test compound and no Erastin were grouped as “background,” and the wells added with no test compound but with Erastin were grouped as “control.” Twenty-four hours after the addition of Erastin, 5 μL of Cell Counting Kit-8 (Dojindo Laboratories) was added to each well and incubated for 4 hours, and the absorbance at 450 nm was then measured for each well (N=2). […] Ferroptosis inhibition rate (%)=[1−{(Average absorbance value at 450 nm measured when a test compound is added)−(Average absorbance value at 450 nm measured in the background)}/{(Average absorbance value at 450 nm measured in the control)−(Average absorbance value at 450 nm measured in the background)}]×100 Equation 1

[3] = evaluation concentration 50 μmol/L
[4] = evaluation concentration 30 μmol/L

Compound | Ferroptosis inhibition rate (%) [2, 4] [%] | also measured
c1ccc(C2CNc3ccccc3N2)cc1 (stereo not shown) [Comparative Example 1, 2-phenyl-1,2,3,4-tetrahydroquinoxaline, reference compound] | – | pEC50 [1]: 5.07; Radical-scavenging action EC50 (μmol/L) [1]: exhibited radical scavenging action
Fc1cccc(C2CCc3ccccc3N2)c1 (stereo not shown) [Example 27, 2-(3-fluorophenyl)-1,2,3,4-tetrahydroquinoline] | – | Ferroptosis inhibition rate (%) [2, 3]: 113.1%
CC(C)(C)NC(=O)Nc1ccc2c(c1)CCC(c1ccc(C(N)=O)cc1)N2 (stereo not shown) [Example 87, 4-(6-(3-(tert-butyl)ureido)-1,2,3,4-tetrahydroquinolin-2-yl)benzamide] | – | Ferroptosis inhibition rate (%) [2, 3]: 95.20%
O=C1CCc2cc(C3CCc4ccccc4N3)ccc2N1 (stereo not shown) [Example 23, 1,2,3,3′,4,4′-hexahydro-[2,6′-biquinolin]-2′(1′H)-one] | 68.45 | –
Brc1ccc2c(c1)CCC(c1ccccc1)N2 (stereo not shown) [Example 70, 6-bromo-2-phenyl-1,2,3,4-tetrahydroquinoline] | 97.10 | –
CN1CCN(C(=O)c2ccc(C3CCc4ccccc4N3)cc2)CC1 (stereo not shown) [Example 43, (4-methylpiperazin-1-yl)(4-(1,2,3,4-tetrahydroquinolin-2-yl)phenyl)methanone] | 107.1 | –
O=C1CCc2cc(C3CCc4ccccc4N3)ccc2N1 (stereo not shown) [Example 125, 1,2,3,3′,4,4′-hexahydro-[2,6′-biquinolin]-2′(1′H)-one] | 102.6 | –
Oc1ccc2c(c1)CCC(c1ccccc1)N2 (stereo not shown) [Example 55, 2-phenyl-1,2,3,4-tetrahydroquinolin-6-ol] | 93.72 | –
O=C1CCc2cc(C3CCc4ccccc4N3)ccc2N1 (stereo not shown) [Example 126, 1,2,3,3′,4,4′-hexahydro-[2,6′-biquinolin]-2′(1′H)-one] | 97.29 | –
COC(=O)c1ccc2c(c1)CCC(c1ccccc1)N2 (stereo not shown) [Example 56, methyl 2-phenyl-1,2,3,4-tetrahydroquinoline-6-carboxylate] | – | Ferroptosis inhibition rate (%) [2, 3]: 100.1%
O=C(Cc1ccc2c(c1)CCC(c1ccccc1)N2)NCC1COC1 (stereo not shown) [Example 154, N-(oxetan-3-ylmethyl)-2-(2-phenyl-1,2,3,4-tetrahydroquin-olin-6-yl)acetamide] | 114.6 | –
FC(F)(F)c1ccc2c(c1)CCC(c1ccccc1)N2 (stereo not shown) [Example 84, 2-phenyl-6-(trifluoromethyl)-1,2,3,4-tetrahydroquinoline] | – | Ferroptosis inhibition rate (%) [2, 3]: 107.1%
CC(C)(O)c1ccc(C2CCc3ccccc3N2)cc1 (stereo not shown) [Example 18, 2-(4-(1,2,3,4-tetrahydroquinolin-2-yl)phenyl)propan-2-ol] | 66.52 | –
COc1ccc2c(c1)CCC(c1ccc3c(c1)OCO3)N2 (stereo not shown) [Example 7, 2-(benzo[d][1,3]dioxol-5-yl)-6-methoxy-1,2,3,4-tetrahydro-quinoline] | – | Ferroptosis inhibition rate (%) [2, 3]: 93.95%
c1ccc(C2CNc3ccccc3C2)cc1 (stereo not shown) [Example 162, 3-phenyl-1,2,3,4-tetrahydroquinoline] | – | Ferroptosis inhibition rate (%) [2, 3]: 108.4%
Cc1ccc2c(c1)CCC(c1cn[nH]c1)N2 (stereo not shown) [Example 97, 6-methyl-2-(1H-pyrazol-4-yl)-1,2,3,4-tetrahydroquinoline] | 83.94 | –
OC1(c2ccc3c(c2)CCC(c2ccccc2)N3)COC1 (stereo not shown) [Example 71, 3-(2-phenyl-1,2,3,4-tetrahydroquinolin-6-yl)oxetan-3-ol] | 108.9 | –
COC(=O)CC1(c2ccccc2)CCc2ccccc2N1 (stereo not shown) [Example 94, 2-(2-phenyl-1,2,3,4-tetrahydroquinolin-2-yl)methyl acetate] | 93.68 | –
CC(C)(C)C(=O)Nc1ccc2c(c1)CCC(c1ccccc1)N2 (stereo not shown) [Example 74, N-(2-phenyl-1,2,3,4-tetrahydroquinolin-6-yl)pivalamide] | 85.08 | –
O=C1NCc2cc(C3CCc4ccccc4N3)ccc21 (stereo not shown) [Example 25, 5-(1,2,3,4-tetrahydroquinolin-2-yl)isoindolin-1-one] | 105.3 | –

Compound | Ferroptosis inhibition rate (%) [2, 4] [%] | also measured
O=C1Cc2cc(C3CCc4cc(Cl)ccc4N3)ccc2N1 (stereo not shown) [Example 95, 5-(6-chloro-2,3,4,4-tetrahydroquinolin-2-yl)indolin-2-one] | 68.84 | –
O=C(c1ccc(C2CCc3ccccc3N2)cc1)N1CCCCC1 (stereo not shown) [Example 41, piperidin-1-yl(4-(1,2,3,4-tetrahydroquinolin-2-yl)phen-yl)methanone] | 102.2 | –
OCc1cccc2c1CCC(c1ccccc1)N2 (stereo not shown) [Example 51, (2-phenyl-1,2,3,4-tetrahydroquinolin-5-yl)methanol] | – | Ferroptosis inhibition rate (%) [2, 3]: 84.55%
O=C(Cc1ccc2c(c1)CCC(c1ccccc1)N2)N1CCCC1 (stereo not shown) [Example 156, 2-(2-phenyl-1,2,3,4-tetrahydroquinolin-6-yl)-1-(pyrrolidin-1-yl)ethan-1-one] | 57.76 | –
Clc1cccc2c1NC(c1ccccc1)CC2 (stereo not shown) [Example 79, 8-chloro-2-phenyl-1,2,3,4-tetrahydroquinoline] | 104.4 | –
c1ccc2c(c1)CCC(c1cn[nH]c1)N2 (stereo not shown) [Example 12, 2-(1H-pyrazol-4-yl)-1,2,3,4-tetrahydroquinoline] | 110.9 | –
c1ccc2c(c1)CCC(c1cc[nH]n1)N2 (stereo not shown) [Example 22, 2-(1H-pyrazol-3-yl)-1,2,3,4-tetrahydroquinoline] | 103.2 | –
Clc1ccc2c(c1)CC(c1ccccc1)CN2 (stereo not shown) [Example 163, 6-chloro-3-phenyl-1,2,3,4-tetrahydroquinoline] | 89.32 | –
N#Cc1cccc(C2CCc3ccccc3N2)c1 (stereo not shown) [Example 45, 3-(1,2,3,4-tetrahydroquinolin-2-yl)benzonitrile] | 109.1 | –
CN1C(=O)CCc2cc(C3CCc4ccccc4N3)ccc21 (stereo not shown) [Example 24, 1′-methyl-1,2,3,3′,4,4′-hexahydro-[2,6′-biquinolin]-2′(1′H)-one] | 59.67 | –
CC(C)(C)CC(=O)Nc1ccc2c(c1)CCC(c1ccccc1)N2 (stereo not shown) [Example 130, 3,3-dimethyl-N-(2-phenyl-1,2,3,4-tetrahydroquinolin-6-yl)butanamide] | 104.2 | –
c1ccc2c(c1)CCC(c1cnco1)N2 (stereo not shown) [Example 65, 5-(1,2,3,4-tetrahydroquinolin-2-yl)oxazole] | 89.25 | –
CC(C)(C)CC(=O)Nc1ccc2c(c1)CCC(c1ccccc1)N2 (stereo not shown) [Example 129, 3,3-dimethyl-N-(2-phenyl-1,2,3,4-tetrahydroquinolin-6-yl)butanamide] | 88.31 | –
CC(C)(C)NC(=O)Nc1ccc2c(c1)CCC(c1ccccc1)N2 (stereo not shown) [Example 127, 1-(tert-butyl)-3-(2-phenyl-1,2,3,4-tetrahydroquinolin-6-yl)urea] | 87.93 | –
COc1cccc(C2CCc3ccccc3N2)c1 (stereo not shown) [Example 5, 2-(3-methoxyphenyl)-1,2,3,4-tetrahydroquinoline] | – | Ferroptosis inhibition rate (%) [2, 3]: 99.69%
CC(=O)Nc1ccc2c(c1)CCC(c1ccccc1)N2 (stereo not shown) [Example 73, N-(2-phenyl-1,2,3,4-tetrahydroquinolin-6-yl)acetamide] | – | Ferroptosis inhibition rate (%) [2, 3]: 88.18%
OCc1ccc(C2CNc3ccccc3C2)cc1 (stereo not shown) [Example 165, (4-(1,2,3,4-tetrahydroquinolin-3-yl)phenyl)methanol] | 96.77 | –
CNC(=O)Cc1ccc2c(c1)CCC(c1ccccc1)N2 (stereo not shown) [Example 159, N-methyl-2-(2-phenyl-1,2,3,4-tetrahydroquinolin-6-yl)acetamide] | 76.27 | –
O=C1CCc2cc(C3CCc4cc(F)ccc4N3)ccc2N1 (stereo not shown) [Example 133, 6-fluoro-1,2,3,3′,4,4′-hexahydro-[2,6′-biquinolin]-2′(1′H)-one] | 98.54 | –

— US12570639B2, “Tetrahydroquinoline derivative and medicinal use thereof” (Toray Industries, Inc., priority 2020, dated 2026)
